Experimental data: patent EP0584223B1, “NOVEL IMMUNOSUPPRESSIVE COMPOUNDS” (VERTEX PHARMACEUTICALS INCORPORATED, priority 1991, dated 1992)
Where two headings read alike, the source gives them in different places.

Legend:
T-cell hybridoma = assay: Table 3 assay 3: apoptosis, activation-induced (anti-CD3) cell death; type: cell-based; conditions: at 1µg/ml; inhibition of activation-induced cell death, viable cell count
[1] = system: fresh human peripheral blood lymphocytes; assay: Table 3 assay 1: human PBL + OKT3 proliferation; type: cell-based; conditions: Lymphocyte, OKT3 antibody (anti-CD3) stimulation, (3H)TdR incorporation, estimated
[2] = system: T-cell clone stimulated with antibody to the T-cell receptor (TCR) and antibody to CD2; assay: Table 3 assay 2: T-cell hybridoma + TCR/CD2 proliferation; type: cell-based; conditions: (3H)TdR incorporation, estimated
CTLL cells = assay: Table 3 assay 4: CTLL proliferation + IL-2; type: cell-based; conditions: Mus musculus, exogenous IL-2, (3H)TdR incorporation
[3] = system: PBLs stimulated with JVM human viral-transformed B lymphoblastoid cell line; assay: MLR bioassay, PBLs stimulated with JVM cells; type: cell-based; conditions: read-out: JVM
Text: (§1) Fresh peripheral blood lymphocytes (PBLs) from LeukoPak cells or whole blood from random normal blood donors (tested HIV-negative and hepatitis negative) are isolated and separated by density centrifugation over Histopaque 1077 (Sigma Chemical Co., St. Louis, MO). The murine CTLL cytotoxic T cell line and the human Jurkat T cell line are from ATCC (CTLL-2 ATCC TIB214, JURKAT CLONE E6-1 ATCC TIBl52). The human allogeneic B cell lines used for activation of the fresh PBLs are EBV-transformed lymphocytes from normal healthy adult donors with two completely different HLA haplotypes. All cell lines were routinely tested for the presence of Mycoplasma contamination using the Gibco Mycotect test kit and are Mycoplasma-free. Culture medium consists of RPMI 1640 (Gibco, Grand Island, NY) containing penicillin (50 U/ml) and streptomycin (50 µg/ml), L-glutamine 2 mM, 2 mercaptoethanol (5 x 10^-5), 10% heat-inactivated FCS and 10 mM HEPES.
(§2) All chemical stocks were dissolved in DMSO.
(§3) Antigen activated proliferation of PBLs in a primary mixed lymphocyte reaction was assessed in the presence or absence of different concentrations of tested compounds and control drugs. 5 x 10^4 fresh PBLs were stimulated with 5 x 10^3 of Mitomycin C treated-allogeneic EBV-transformed […] cells, LB and JVM, in a final volume of 200 µl per well in 96-well round-bottomed plates (Mishell, B.B. and S.M. Shiigi, Selected Methods in Cellular Immunology W.H. Freeman and Co., San Francisco, CA (1980); Nelson, P.A. et al., Transplantation 50:286 (1990)). Cultures were pulsed on day 6, harvested 24 h later and counted as in previous section.

FKBP = FKBP (Homo sapiens, UniProt P62942); assay: Inhibition of FKBP PPIase (rotamase) activity, chymotrypsin-coupled assay; type: biochemical; conditions: apparent Ki
Sequence of FKBP (P62942 whole entry): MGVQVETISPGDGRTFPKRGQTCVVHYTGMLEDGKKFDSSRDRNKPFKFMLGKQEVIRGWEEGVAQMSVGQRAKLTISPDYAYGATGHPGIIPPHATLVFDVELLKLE
Text: The inhibition of the PPIase (rotamase) enzyme activity of the FKBP (apparent "Ki" values) can also be measured according to the methods described by either Harding, M.W. et al., Nature 341:758-760 (1989) or Siekierka, J.J. et al., Nature 341:755-757 (1989). The cis-trans isomerization of the […] peptide bond in a model substrate, N-succinyl-Ala-Ala-Pro-Phe-p-nitroanilide, is monitored spectrophotometrically in a coupled assay with chymotrypsin, which releases 4-nitroanilide from the trans form of the substrate. Fischer, G. et al., Nature 337:476-478 (1989). The inhibitory effect of the addition of different concentrations of inhibitor on the extent of the reaction is determined, and analysis of the change in first order rate constant as a function of inhibitor concentration yields an estimate of the apparent Ki value.

[4] = system: CTLL-20 murine T cell line; assay: IL-2 microassay, IL-2 dependent CTLL proliferation; type: cell-based; conditions: Mus musculus, read-out: CTLL
[5] = system: PBLs stimulated with LB human viral-transformed B lymphoblastoid cell line; assay: MLR bioassay, PBLs stimulated with LB cells; type: cell-based; conditions: read-out: LB
Text: as §1, §2, §3

FK-506 binding protein = FK-506 binding protein (Homo sapiens, UniProt P62942); assay: Competitive binding assay with [3H]dihydro-FK-506; conditions: binding to FKBP; apparent Kd, competition with [3H]dihydro-FK-506
Sequence of FK-506 binding protein (P62942 whole entry): as above

[6] = system: human peripheral blood lymphocytes (PBC); assay: Mitogenesis assay, PMA plus ionomycin stimulated proliferation; type: cell-based; conditions: Lymphocyte, read-out: PMA
[7] = system: human peripheral blood lymphocytes (PBC); assay: Mitogenesis assay, OKT3 stimulated proliferation; type: cell-based; conditions: Lymphocyte, read-out: OKT3
[8] = Bioavailability in rats, blood levels by HPLC; type: in vivo; conditions: rat, 50 mg/kg single dose, whole blood
Experimental: Bioavailability of compound (20) was determined in rats. A single dose of 50 mg/kg was administered by oral gavage or intraperitoneal (IP) injection in a vehicle consisting of olive oil-10% ethanol. Thereafter, animals were sacrificed at 0.5, 1, 2, 4, 8 and 12 hr, blood was collected into sodium heparin and immediately frozen. Whole blood was extracted with acetonitrile-methanol (90/10 vol:vol) and the concentration of compound per ml of blood was determined by HPLC. […] After oral administration, blood levels of 0.5µM, 1µM, 2µM, 12µM, and 3µM were measured at .05h, 1h, 2h, 4h, and 8h, respectively.

[9] = Bioavailability in rats, blood levels by HPLC; type: in vivo; conditions: rat, oral gavage, 50 mg/kg single dose, .05h, whole blood
[10] = mixed lymphocyte reaction, JVM stimulator cells, inhibition of proliferation
[11] = inhibition of proliferation of cytotoxic T cells stimulated by IL-2
[12] = mixed lymphocyte reaction, LB stimulator cells, inhibition of proliferation
[13] = OKT3 (10^-4 dilution final), inhibition of proliferation, 3H-thymidine

Row | Ki (FKBP) | Kd (FK-506 binding protein) | Compound | IC50 [3, 10] | IC50 [4, 11] | IC50 [5, 12] | IC50 ([6]; 3 h) | IC50 [7, 13] | further results
1 | – | – | CO[C@H]1C[C@@H]2CC[C@@H](C)[C@@](O)(O2)C(=O)C(=O)N2CCCC[C@H]2C(=O)O[C@H]([C@H](C)C[C@@H]2CC[C@@H](O)[C@H](OC)C2)CC(=O)[C@H](C)/C=C(\C)[C@@H](O)[C@@H](OC)C(=O)[C@H](C)C[C@H](C)/C=C/C=C/C=C/1C [Rapamycin] | – | – | – | – | – | Apoptosis (T-cell hybridoma): Inactive at 1µg/ml; IC50 [1]: < 1 µg/mL; IC50 [2]: < 1 µg/mL; IC50 (CTLL cells): ~0.01 µg/mL
2 | – | – | C=CC[C@@H]1/C=C(\C)C[C@H](C)C[C@H](OC)[C@H]2O[C@@](O)(C(=O)C(=O)N3CCCC[C@H]3C(=O)O[C@H](/C(C)=C/[C@@H]3CC[C@@H](O)[C@H](OC)C3)[C@H](C)[C@@H](O)CC1=O)[C@H](C)C[C@@H]2OC [FK-506] | – | – | – | – | – | IC50 [1]: < 1 µg/mL; IC50 [2]: < 1 µg/mL; IC50 (CTLL cells): > 1 µg/mL
3 | 27 nM | 30 nM | COc1cc(C(=O)C(=O)N2CCCC[C@H]2C(=O)OC(CCCc2ccccc2)/C(C)=C/[C@H]2CC[C@H](O)CC2)cc(OC)c1OC (mixture of isomers) [Compound 8, (R and S)-(E)-1-[trans-(4-Hydroxycyclohexyl)]-2-methyl-6-phenyl-3-hex-1-enyl (S)-N-(3,4,5-trimethoxyphenylglyoxyl)pipecolate] | 10000 nM | 4000 nM | 10000 nM | 4000 nM | 5000 nM | –
4 | 4 nM | 19 nM | COc1cc(C(=O)C(=O)N2CCCC[C@H]2C(=O)OC(CCCc2ccccc2)CCCc2ccc(CO)cc2)cc(OC)c1OC (stereo partly drawn) [Compound 26] | 2500 nM | 4000 nM | 3000 nM | 3000 nM | 1000 nM | –
5 | 1 nM | 40 nM | COc1cc(C(=O)C(=O)N2CCCC[C@H]2C(=O)OC(CCCc2ccccc2)CCCc2cccc(CO)c2)cc(OC)c1OC (stereo partly drawn) [Compound 35] | 3000 nM | 2500 nM | 2500 nM | 2700 nM | 6500 nM | –
6 | 7 nM | 140 nM | COc1cc(C(=O)C(=O)N2CCCC[C@H]2C(=O)OC(CCCc2ccccc2)c2cccc(CO)c2)cc(OC)c1OC (stereo partly drawn) [Compound 37] | 2200 nM | 1200 nM | 1200 nM | 2000 nM | 5000 nM | –
7 | 4 nM | 20 nM | COc1cc(C(=O)C(=O)N2CCCC[C@H]2C(=O)OC(CCCc2ccccc2)CCCc2cccc(C(=O)O)c2)cc(OC)c1OC (stereo partly drawn) [Compound 36] | 9000 nM | > 10000 nM | > 10000 nM | > 10000 nM | > 10000 nM | –
8 | 1 nM | 4 nM | COc1cc(C(=O)C(=O)N2CCCC[C@H]2C(=O)OC(CCCc2ccccc2)CCCc2ccccn2)cc(OC)c1OC (stereo partly drawn) [Compound 20] | 2500 nM | 2000 nM | 2000 nM | 1700 nM | 2000 nM | concentration at 0.5 h ([8]; IP, 0.5h): 700 nM; concentration at 1 h ([8]; IP): 22000 nM; concentration at 2 h ([8]; IP): 225000 nM; concentration at 4 h ([8]; IP): 45000 nM; concentration at 8 h ([8]; IP): 1000 nM; concentration at 1 h ([8]; oral gavage): 1000 nM; concentration at 2 h ([8]; oral gavage): 2000 nM; concentration at 4 h ([8]; oral gavage): 12000 nM; concentration at 8 h ([8]; oral gavage): 3000 nM; concentration at 0.05 h [9]: 500 nM
9 | 80 nM | 40 nM | COc1cc(C(=O)C(=O)N2CCCC[C@H]2C(=O)OC(CCCc2ccccc2)c2ccccc2)cc(OC)c1OC (stereo partly drawn) [Compound 6] | 9000 nM | 5000 nM | 10000 nM | 8000 nM | 8000 nM | –
10 | 2 nM | 3 nM | CC(C)Oc1cccc(C(=O)C(=O)N2CCCC[C@H]2C(=O)OC(CCCc2ccccc2)CCCc2cccnc2)c1 (stereo partly drawn) [Compound 29] | > 10000 nM | 4000 nM | > 10000 nM | 10000 nM | 8000 nM | –
11 | 4 nM | 27 nM | COc1ccc(CCC(CCCc2ccccc2)OC(=O)[C@@H]2CCCCN2C(=O)C(=O)c2cc(OC)c(OC)c(OC)c2)cc1 (stereo partly drawn) [Compound 13] | > 10000 nM | 9000 nM | > 10000 nM | 8000 nM | 10000 nM | –

Row | Compound | Ki (FKBP) | Kd (FK-506 binding protein) | IC50 [3, 10] | IC50 [4, 11] | IC50 [5, 12] | IC50 ([6]; 3 h) | IC50 [7, 13] | further results
12 | COc1ccc(CCCC(CCCc2ccccc2)OC(=O)[C@@H]2CCCCN2C(=O)C(=O)c2cc(OC)c(OC)c(OC)c2)cc1 (stereo partly drawn) [Compound 17] | 3 nM | 68 nM | – | – | – | – | – | IC50 [3]: 7000 nM; IC50 ([4]; CTLL): > 10000 nM; IC50 [5]: 5500 nM; IC50 [6]: 4500 nM; IC50 [7]: 2500 nM
